How the values were obtained:
FXIa CD = molecular target: T1, FXIa CD (Homo sapiens, UniProt P03951, C500S/K455A/S452A/T493A); test: FXIa surface plasmon resonance (Biacore) inhibition in solution assay; format: binding
T1 construct: purification of the catalytic domain (residues 370–607) was carried out as described by Jin et al; made in house
Excerpt: SPR. […] The SPR data were then used to rank and select compounds for X-ray crystallography experiments. The SPR method was based on an inhibition in solution assay in which compound 4, immobilized on the biosensor surface, served as a probe for the FXIa catalytic site. […] Fig. 4 illustrates the design of compound 4 based on the crystal structure of FXIa in complex with compound 1. Since any ligand that binds to the S1 pocket competes with compound 4 for binding to FXIa CD, it is possible to derive the K D for that ligand [60]. The initial binding rate of the protein to compound 4, K on, was used to determine the percentage of free protein in solution which changed by varying the concentration of the competing ligand. The free protein concentration was plotted against the logarithm of the ligand concentration and a sigmoidal dose–response curve-fit model was applied to determine the K D-value.
The tethered free amine ligand 4 was covalently linked to the dextran layer on the CM5 sensor chip (GE Healthcare/Biacore) using the Amine Coupling Kit (Healthcare/Biacore) and performed according to the manufacturer’s recommendations. Carboxyl groups on the dextran layer were activated by injecting a 1:1 mixture of 0.5 M N-ethyl-N’ (3-dimethylaminopropyl)-carbodiimide and 0.5 M N-hydroxysuccinimide at 10 μL/min for 7 min. The activated carboxyl groups on the control channels were blocked by injecting a 1 M ethanolamine solution for 7 min at 10 μL/min. […] The remaining activated groups were blocked with 1 M ethanolamine. Compounds were tested in a concentration response curve. The compounds were serially diluted 1:3 in DMSO to form a 10-point concentration response curve with 5 mM for the highest concentration. The FXIa CD was added to the plate at a final concentration of 50 nM and the mixture was incubated for 15 min at RT. The plate was then sealed and placed in the Biacore 3000 instrument. Samples were injected at 20 μL/min for 2 min. […] The value used to calculate percent inhibition of binding was the slope of the response measured 8 s after the start of the injection. […]

[1] = Chromatographic determination of lipophilicity; format: physicochemical; conditions: reversed-phase UPLC, Waters BEH C18 stationary phase, pH 7.4; measured by liquid chromatography, pH7.4
Excerpt: The chromatographic data was obtained utilizing a Waters Aquity UPLC chromatographic system running a gradient from 5–95% acetonitrile at pH7.4. The stationary phase was a Waters BEH C18 2.1x50 mm. Standardized retention data were obtained by normalization against a set of compounds with precisely determined (octanol/water) logD-values. Lipophilicity values for samples were derived from a corresponding calibration curve.

[2] = molecular target: T2, Human recombinant thrombin (Homo sapiens, UniProt P00734); test: Thrombin (FIIa) chromogenic assay; format: biochemical; conditions: read-out: FIIa % inhibition at 99 μM
T2 construct: Human recombinant thrombin was prepared in house; made in house
Description: (§1) Enzymatic assay. […] Selected compounds were also screened against other serine proteases to evaluate their selectivity profiles.
(§2) Once the compounds were synthesized and characterized, enzymatic assays were performed to evaluate the inhibitory activity of the resulting compounds against FXIa and other serine proteases. […] IC50 values for the compounds were determined using equation: Q= V/(1+([I]/IC50)^n) Q denotes the assay readout, V denotes the uninhibited velocity of the enzyme, [I] denotes the inhibitor concentration, n denotes the slope and IC50 is the inhibitor concentration at V/2.
(§3) [S] denotes the substrate concentration.
Thrombin. Human recombinant thrombin was prepared in house.

Human plasmin = molecular target: T3, Human plasmin (Homo sapiens, UniProt P00747); test: Plasmin chromogenic assay; format: biochemical; conditions: read-out: Plasmin % inhibition at 99 μM
T3 construct: Human plasmin was from Enzyme Research Laboratories, Swansea, UK; purchased Enzyme Research Laboratories, Swansea, UK
Description: as §1, §2, §3
Plasmin. Human plasmin was from Enzyme Research Laboratories, Swansea, UK.

Human tPA = Human tPA (Homo sapiens, UniProt P00750); test: biochemical; conditions: read-out: tPA % inhibition at 99 μM
Description: as §1, §2
tPa. Human tPA was from Biopool, Umeå, Sweden.

Human PKK = molecular target: T4, Human PKK (Homo sapiens, UniProt P03952); test: PKK (plasma kallikrein) chromogenic assay; format: biochemical
T4 construct: trypsin, plasma kallikrein (PKK), FIXa; purchased Calbiochem, Darmstadt, Germany
Description: as §1, §2, §3
PKK. Human PKK was from Calbiochem, Darmstadt, Germany.

Human FXIa = molecular target: T5, Human FXIa (Homo sapiens, UniProt P03951); test: FXIa enzymatic chromogenic assay; format: biochemical
T5 construct: purchased HTI, Essex Junction, USA
Description: as §1, §2, §3

[3] = molecular target: Recombinant human trypsin (Homo sapiens, UniProt P07477); test: biochemical; conditions: read-out: Trypsin % inhibition at 99 μM
Description: as §1, §2
Trypsin. Recombinant human trypsin was from Polymun, Vienna, Austria.

T5 sequence (P03951 388-625): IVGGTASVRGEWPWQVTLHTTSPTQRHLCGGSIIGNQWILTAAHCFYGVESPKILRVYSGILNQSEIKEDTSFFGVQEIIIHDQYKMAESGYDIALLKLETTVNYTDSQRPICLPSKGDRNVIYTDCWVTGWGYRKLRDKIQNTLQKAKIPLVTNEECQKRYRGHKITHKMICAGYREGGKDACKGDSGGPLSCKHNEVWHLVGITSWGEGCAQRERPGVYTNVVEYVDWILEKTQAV
T5 sequence (P03951 19-387): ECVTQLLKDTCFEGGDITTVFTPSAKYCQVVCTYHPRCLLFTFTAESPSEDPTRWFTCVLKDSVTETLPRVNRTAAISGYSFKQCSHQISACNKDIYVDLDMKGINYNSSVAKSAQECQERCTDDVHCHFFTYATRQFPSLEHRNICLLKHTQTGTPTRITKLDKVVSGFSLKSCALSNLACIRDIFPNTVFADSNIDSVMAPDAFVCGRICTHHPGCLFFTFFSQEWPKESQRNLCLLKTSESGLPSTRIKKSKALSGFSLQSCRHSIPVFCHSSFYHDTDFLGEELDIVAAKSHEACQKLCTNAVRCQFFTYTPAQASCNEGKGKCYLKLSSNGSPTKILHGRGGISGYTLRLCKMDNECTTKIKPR
T4 sequence (P03952 391-638 limits assumed): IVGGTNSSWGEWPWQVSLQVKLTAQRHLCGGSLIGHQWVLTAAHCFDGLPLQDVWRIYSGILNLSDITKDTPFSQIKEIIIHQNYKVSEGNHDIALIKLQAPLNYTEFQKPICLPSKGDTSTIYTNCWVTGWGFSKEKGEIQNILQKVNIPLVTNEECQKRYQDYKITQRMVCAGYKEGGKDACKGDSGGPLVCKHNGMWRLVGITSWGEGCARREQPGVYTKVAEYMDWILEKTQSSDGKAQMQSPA
T4 sequence (P03952 20-390 partner limits assumed): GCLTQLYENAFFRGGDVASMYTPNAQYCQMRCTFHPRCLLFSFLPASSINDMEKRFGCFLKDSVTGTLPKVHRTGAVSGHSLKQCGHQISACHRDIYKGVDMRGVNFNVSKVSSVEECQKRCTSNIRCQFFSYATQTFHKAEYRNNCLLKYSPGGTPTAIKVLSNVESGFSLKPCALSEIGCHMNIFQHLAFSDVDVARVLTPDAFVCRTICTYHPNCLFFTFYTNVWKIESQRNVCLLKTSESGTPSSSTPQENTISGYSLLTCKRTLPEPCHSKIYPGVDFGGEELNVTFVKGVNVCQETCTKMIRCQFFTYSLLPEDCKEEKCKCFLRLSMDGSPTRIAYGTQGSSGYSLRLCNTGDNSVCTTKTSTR
Chain of Human tPA (P00750 36-562): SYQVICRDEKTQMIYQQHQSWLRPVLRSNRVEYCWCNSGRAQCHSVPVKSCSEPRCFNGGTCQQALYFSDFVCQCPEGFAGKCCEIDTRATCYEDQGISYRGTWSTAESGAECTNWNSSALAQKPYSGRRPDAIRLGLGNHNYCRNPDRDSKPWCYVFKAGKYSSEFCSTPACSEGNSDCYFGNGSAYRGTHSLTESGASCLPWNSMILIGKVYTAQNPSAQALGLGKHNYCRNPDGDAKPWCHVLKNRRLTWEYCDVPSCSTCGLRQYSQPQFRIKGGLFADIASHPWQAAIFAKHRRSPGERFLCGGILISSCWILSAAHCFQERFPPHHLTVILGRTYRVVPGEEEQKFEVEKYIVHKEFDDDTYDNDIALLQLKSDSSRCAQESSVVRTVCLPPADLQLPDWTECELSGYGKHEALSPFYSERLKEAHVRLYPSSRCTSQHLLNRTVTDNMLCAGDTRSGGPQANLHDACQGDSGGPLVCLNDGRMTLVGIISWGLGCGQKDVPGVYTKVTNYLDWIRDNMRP
T3 sequence (P00747 581-810 limits assumed): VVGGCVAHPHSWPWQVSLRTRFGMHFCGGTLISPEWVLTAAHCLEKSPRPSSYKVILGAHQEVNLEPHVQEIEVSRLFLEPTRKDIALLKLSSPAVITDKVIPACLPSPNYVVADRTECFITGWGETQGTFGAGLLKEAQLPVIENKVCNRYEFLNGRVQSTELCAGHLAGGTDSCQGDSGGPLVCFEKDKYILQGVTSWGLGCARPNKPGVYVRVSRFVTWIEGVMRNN
T3 sequence (P00747 97-580 partner limits assumed): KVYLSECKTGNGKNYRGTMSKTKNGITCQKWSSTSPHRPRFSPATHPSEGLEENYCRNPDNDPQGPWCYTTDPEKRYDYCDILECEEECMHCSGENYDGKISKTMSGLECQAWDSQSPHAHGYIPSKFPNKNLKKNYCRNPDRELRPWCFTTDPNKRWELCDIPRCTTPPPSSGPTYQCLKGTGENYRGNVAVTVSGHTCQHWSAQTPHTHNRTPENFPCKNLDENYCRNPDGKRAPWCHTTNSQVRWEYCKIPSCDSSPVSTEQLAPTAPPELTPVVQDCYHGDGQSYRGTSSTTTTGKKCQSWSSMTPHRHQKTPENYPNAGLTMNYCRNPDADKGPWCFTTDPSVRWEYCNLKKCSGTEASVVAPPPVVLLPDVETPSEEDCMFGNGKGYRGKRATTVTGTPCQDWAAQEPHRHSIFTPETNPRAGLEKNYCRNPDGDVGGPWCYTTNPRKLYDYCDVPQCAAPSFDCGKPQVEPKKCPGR
T1 sequence (P03951 388-625 S452A/K455A/T493A/C500S): as the sequence (P03951 388-625) above, with S65A, K68A, T106A, C113S counted along it

O=C(N[C@@H](Cc1ccccc1)C(=O)NCc1cc(=O)[nH]c2ccc(Cl)cc12)c1ccc2[nH]c(=O)cc(O)c2c1 [Compound 13, (S)-N-(1-{(6-Chloro-2-oxo-1,2-dihydroquinolin-4-yl)methylamino}-1-oxo-3-phenylpropan-2-yl)-4-hydroxy-2-oxo-1,2-dihydroquinoline-6-carboxamide]
Kd (FXIa CD): 0.5 nM
chromatographic logD [1]: 0.87
inhibition at 99 µM [2]: 11%
inhibition at 99 µM (Human plasmin): 14%
inhibition at 99 µM (Human tPA): 2%
IC50 (Human PKK): 27 nM
selectivity vs. PKK (Human PKK; FXIa over PKK, for 13 based on Ki values): 11 fold
Ki (Human PKK; converted from IC50): 5.6 nM
IC50 (Human FXIa): 1 nM
ligand efficiency (LE) (Human FXIa; FXIa): 0.32
ΔG (binding free energy) (Human FXIa; FXIa, term of the ΔG link equation): -12.7 kcal/mol
ΔG link (linker contribution) (Human FXIa; compound 13 relative to fragments 5 and 15): -3.13 kcal/mol
Ki (Human FXIa; read-out: FXIa Ki): 0.5 nM
inhibition at 99 µM [3]: 12%

— article PMC4309560, “Creating Novel Activated Factor XI Inhibitors through Fragment Based Lead Generation and Structure Aided Drug Design” (PLoS ONE, 2015)
